# Measurements: the supplement of paper PMC4862054
# What was measured:
# Assay in all cases: normalised response (% of control), CellTiter-Glo; higher = more viable cells (100 = DMSO, 0 = benzethonium chloride kill control)
# Details in all cases: incubation time: 72 h
# [1] = system: BT-474
# Outline: (§1)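 In 384-well plates holding compound at 5 concentrations in 10-fold steps over a 10,000-fold range specific to each compound, breast cancer cell lines were seeded as 20 µl suspension and incubated 72 h. CellTox Green fluorescence was measured at 485/520 nm, after which CellTiter-Glo luminescence was measured following 10 min at room temperature. Plate signals were normalised to 0.1 % DMSO (100) and a positive kill control (0), and each value is the normalised signal at a single concentration.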
# [2] = system: BT-549
# Outline: as §1
# [3] = system: CAL-120
# Outline: as §1
# [4] = system: CAL-148
# Outline: as §1
# [5] = system: CAL-51
# Outline: as §1
# [6] = system: CAL-85-1
# Outline: as §1
# [7] = system: DU-4475
# Outline: as §1
# [8] = system: HCC1143
# Outline: as §1
# [9] = system: HCC1599
# Outline: as §1
# [10] = system: HCC1937
# Outline: as §1
# [11] = system: HDQ-P1
# Outline: as §1
# [12] = system: Hs578T
# Outline: as §1
# [13] = system: MCF-10A
# Outline: as §1
# [14] = system: MDA-MB-231
# Outline: as §1
# [15] = system: MDA-MB-436
# Outline: as §1
# [16] = system: MDA-MB-453
# Outline: as §1
# [17] = system: MDA-MB-468
# Outline: as §1
# [18] = system: MFM-223
# Outline: as §1
# [19] = system: SK-BR-3
# Outline: as §1
SMILES,normalised response [1] [%],normalised response [2] [%],normalised response [3] [%],normalised response [4] [%],normalised response [5] [%],normalised response [6] [%],normalised response [7] [%],normalised response [8] [%],normalised response [9] [%],normalised response [10] [%],normalised response [11] [%],normalised response [12] [%],normalised response [13] [%],normalised response [14] [%],normalised response [15] [%],normalised response [16] [%],normalised response [17] [%],normalised response [18] [%],normalised response [19] [%]
CC(=O)Nc1ccc(C(=O)Nc2ccccc2N)cc1 [Tacedinaline] (0.1 nM),102,99.5,92.1,93.2,113,104,100,92.9,100,98.4,94.2,96.7,98.4,98.9,101,104,105,97.1,105
CCCCCCCCCCCCCCCCCCOP(=O)([O-])OC1CC[N+](C)(C)CC1 [Perifosine] (2.5 nM),104,99.5,102,95.9,81,101,94.7,102,61.5,101,108,98.9,98.4,100,95.2,101,97.4,92.8,92.8
Oc1nc(-c2ccc(C(F)(F)F)cc2)nc2c1CSCC2 [XAV-939] (10 nM),102,98.6,93.8,101,78.4,98.7,104,99.8,108,101,97.8,102,105,95.4,99.9,106,92.9,98.9,117
O=C(O)c1ccc(-c2c[nH]c3ncc(-c4ccccc4)cc23)cc1C1CCCC1 (1 nM),95.4,103,94.8,96.5,125,98.4,97.3,97.5,83.8,91.1,93.7,98.3,89.7,94.2,92.8,99.3,92.9,94.5,89.6
NC(=O)Nc1cc(-c2cccc(F)c2)sc1C(=O)N[C@H]1CCCNC1 [AZD7762] (1 nM),114,95.6,99.7,102,95.7,98.5,104,103,95.7,98.7,91.2,101,103,103,106,94.1,102,102,105
COc1cc2ncnc(Nc3ccc(F)c(Cl)c3)c2cc1NC(=O)/C=C/CN1CCCCC1 [Dacomitinib] (0.1 nM),99,102,94,109,71.8,97.5,95.3,107,93.7,104,99.8,98.5,101,102,102,99.9,101,102,99.6
C=C(c1ccc(C(=O)O)cc1)c1cc2c(cc1C)C(C)(C)CCC2(C)C [Bexarotene] (10 nM),99.8,97.1,101,106,137,107,101,101,96.3,94.6,106,97,99.4,100,100,101,104,107,98.8
N.N.[Cl][Pt][Cl] [Cisplatin] (0.1 nM),101,106,102,85.7,115,97.2,92,95.2,110,101,101,102,103,99.7,98.2,98.9,97.3,96.9,98.6
O=C(CCCCCCC(=O)Nc1ccc([C@H]2O[C@@H](CSc3nc(-c4ccccc4)c(-c4ccccc4)o3)C[C@@H](c3ccc(CO)cc3)O2)cc1)NO [Tubacin] (1 nM),94.2,100,96.1,97.6,119,92.4,100,98.9,93.5,93.3,94.6,100,92.8,97.5,82.1,103,91.5,96.8,101
N#CCNC(=O)c1ccc(-c2ccnc(Nc3ccc(N4CCOCC4)cc3)n2)cc1 [Momelotinib] (10 nM),94.2,99.6,95.1,94.9,80.9,97.1,97.2,100,89.8,96.8,103,104,103,97.4,101,89.5,92.8,94.2,115
C[C@]12CC[C@@H]3c4ccc(O)cc4C[C@@H](CCCCCCCCC[S+]([O-])CCCC(F)(F)C(F)(F)F)[C@H]3[C@@H]1CC[C@@H]2O (some centres undefined) [Fulvestrant] (0.1 nM),101,109,95.7,102,123,101,102,95.3,93.4,105,101,112,107,100,105,112,101,107,108
N#CCNC(=O)c1ccc(-c2ccnc(Nc3ccc(N4CCOCC4)cc3)n2)cc1 [Momelotinib] (1 nM),89.8,95.1,96.9,94.2,128,94.6,95.3,97.6,94.7,97.7,100,97.2,90.4,97.2,97.8,91.9,98.2,92.3,95.8
N[C@@H](CSC(c1ccccc1)(c1ccccc1)c1ccccc1)C(=O)O [S-trityl-L-cysteine] (40 nM),96.7,99.2,102,97.5,131,104,101,92.7,109,93.8,119,94.3,105,90.4,103,95,98.5,107,97.5
COc1cc2nccc(Oc3ccc(NC(=O)C4(C(=O)Nc5ccc(F)cc5)CC4)cc3)c2cc1OC [Cabozantinib] (1 nM),97.3,98.8,100,95.9,122,96.1,101,99.1,107,94.4,99.3,102,93.5,104,96.6,105,102,102,101
Cc1ccc(C(=O)Nc2ccc(CN3CCN(C)CC3)c(C(F)(F)F)c2)cc1C#Cc1cnc2cccnn12 [Ponatinib] (1 nM),104,106,106,99.5,101,108,100,97.1,103,98.4,104,97.3,103,97.2,108,98.2,107,99.5,99.4
CCC1(c2ccc(N)cc2)CCC(=O)NC1=O (centres undefined) [Aminoglutethimide] (10 nM),105,95.2,100,100,151,105,104,108,97,99.3,97.5,97.3,103,104,95.4,90.2,101,101,98.7
NC(=O)Nc1cc(-c2cccc(F)c2)sc1C(=O)N[C@H]1CCCNC1 [AZD7762] (0.1 nM),105,105,105,102,77,98.4,108,98.4,89.9,94.3,106,99.2,98.2,105,97.5,99.9,100,109,105
O=P1(NCCCl)OCCCN1CCCl (centres undefined) [Ifosfamide] (10 nM),96.8,95.9,93.2,86.1,118,100,92.5,98.1,89.3,95.8,98,102,96.1,101,94,87.7,91.6,89.1,94.9
O=C1CCC(N2C(=O)c3ccccc3C2=O)C(=O)N1 (centres undefined) [Thalidomide] (10 nM),94,99.7,94.2,92.6,65.4,100,97.2,97.3,102,95.3,96.1,100,100,98.4,95.8,96.3,91.9,97.5,98.9
Cn1c(CCCC(=O)O)nc2cc(N(CCCl)CCCl)ccc21 [Bendamustine] (10 nM),111,99.3,107,110,100,102,111,107,106,102,101,103,110,103,104,107,106,106,110
CC(C)Cn1cnc2c(N)nc3ccccc3c21 [Imiquimod] (0.25 nM),102,99,96.5,99.6,96.8,103,104,99.2,99.2,97.1,94.2,99,111,101,99.6,109,91.9,100,110
